From ChEMBL document CHEMBL1201862, “PubChem BioAssay data set” (2004)
The source made the active and inactive calls.

What was measured:
[1] = molecular target: DNA repair and recombination protein RAD54-like (Homo sapiens, UniProt Q92698); experiment: inhibitors of human RAD54 branch migration, confirmation, biochemical, fluorescence, cherry-picked samples, dose series (AID 651657); type: functional
[2] = molecular target: T1, RNA-binding protein pos-1 (Caenorhabditis elegans, UniProt G5EF15); experiment: inhibitors of POS-1/mex-3 RNA binding, dose response, biochemical, fluorescence polarization (AID 1964);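 note: purified POS-1 fused to maltose binding protein made in E. coli; potency of compounds blocking POS-1 binding to fluorescent RNA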
T1 sequence (G5EF15 whole entry): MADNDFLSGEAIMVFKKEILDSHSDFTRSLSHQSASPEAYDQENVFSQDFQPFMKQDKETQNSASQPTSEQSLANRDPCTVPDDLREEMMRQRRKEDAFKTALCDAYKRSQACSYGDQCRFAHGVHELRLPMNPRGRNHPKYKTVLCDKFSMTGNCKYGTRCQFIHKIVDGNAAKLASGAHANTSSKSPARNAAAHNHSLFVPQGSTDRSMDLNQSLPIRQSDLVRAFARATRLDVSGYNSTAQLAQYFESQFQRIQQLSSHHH

[3] = molecular target: T2, Zinc finger protein mex-5 (Caenorhabditis elegans, UniProt Q9XUB2); experiment: MEX-5/TCR-2 RNA interaction inhibitors, dose response, biochemical, C. elegans, fluorescence polarization (AID 1960)
T2 sequence (Q9XUB2 whole entry): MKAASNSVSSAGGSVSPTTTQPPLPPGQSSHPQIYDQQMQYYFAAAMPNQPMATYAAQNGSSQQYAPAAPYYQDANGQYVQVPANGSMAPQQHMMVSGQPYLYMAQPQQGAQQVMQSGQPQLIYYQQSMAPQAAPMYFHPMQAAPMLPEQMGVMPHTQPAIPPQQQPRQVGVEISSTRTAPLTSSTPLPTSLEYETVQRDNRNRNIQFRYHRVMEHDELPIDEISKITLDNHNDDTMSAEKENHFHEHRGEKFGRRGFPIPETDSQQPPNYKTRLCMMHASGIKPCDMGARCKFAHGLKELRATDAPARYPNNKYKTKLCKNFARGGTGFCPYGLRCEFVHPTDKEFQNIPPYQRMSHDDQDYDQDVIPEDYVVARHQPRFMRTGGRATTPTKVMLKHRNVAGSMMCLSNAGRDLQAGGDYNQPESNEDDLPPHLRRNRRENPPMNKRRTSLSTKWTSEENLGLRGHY

CHO-K1 = experiment: (§1) Counterscreen for antagonists of the orexin 1 receptor (OX1R; HCRTR1): Homogeneous time resolved fluorescence (HTRF)-based cell-based dose response assay to identify antagonists of the parental CHO-K1 cell line. [Related pubchem assays (depositor defined):AID434989, AID435008, AID463079, AID485270, AID492963, AID492964, AID492965, AID493232, AID504699, AID504701]; type: functional; details: Cricetulus griseus
Bcl-2-related protein A1 = molecular target: T3, Bcl-2-related protein A1 (Mus musculus, UniProt Q07440); type: functional;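 note: confirmatory dose–response counterscreen on Bfl-1, used to check hits from a UBC13 polyubiquitin inhibitor campaign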
T3 sequence (Q07440 whole entry): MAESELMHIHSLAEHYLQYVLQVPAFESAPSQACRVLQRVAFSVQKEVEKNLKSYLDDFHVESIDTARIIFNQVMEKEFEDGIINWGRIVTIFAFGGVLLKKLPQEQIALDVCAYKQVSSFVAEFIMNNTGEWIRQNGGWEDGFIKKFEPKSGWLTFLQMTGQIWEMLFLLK

[4] = molecular target: T4, Ubiquitin-conjugating enzyme E2 N (Homo sapiens, UniProt P61088); type: functional
T4 sequence (P61088 whole entry): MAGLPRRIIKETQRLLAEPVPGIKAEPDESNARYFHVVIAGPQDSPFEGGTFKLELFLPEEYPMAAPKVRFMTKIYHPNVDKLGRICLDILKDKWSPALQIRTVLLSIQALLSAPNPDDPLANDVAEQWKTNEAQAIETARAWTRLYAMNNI

[5] = as §1, with “Fluorescence-based” for “Homogeneous time resolved fluorescence (HTRF)-based”, “cell-based high throughput” for “cell-based”, “CHO” for “CHO-K1”; type: functional
[6] = molecular target: T5, Orexin/Hypocretin receptor type 1 (Homo sapiens, UniProt O43613); experiment: Homogeneous Time Resolved Fluorescence (HTRF)-based cell-based high throughput dose response assay for antagonists of the orexin 1 receptor (OX1R; HCRTR1). [Related pubchem assays (depositor defined):AID434989, AID435008, AID463079, AID485270, AID492963, AID492964, AID492965, AID493232, AID504717, AID504718]; type: functional
T5 sequence (O43613 whole entry): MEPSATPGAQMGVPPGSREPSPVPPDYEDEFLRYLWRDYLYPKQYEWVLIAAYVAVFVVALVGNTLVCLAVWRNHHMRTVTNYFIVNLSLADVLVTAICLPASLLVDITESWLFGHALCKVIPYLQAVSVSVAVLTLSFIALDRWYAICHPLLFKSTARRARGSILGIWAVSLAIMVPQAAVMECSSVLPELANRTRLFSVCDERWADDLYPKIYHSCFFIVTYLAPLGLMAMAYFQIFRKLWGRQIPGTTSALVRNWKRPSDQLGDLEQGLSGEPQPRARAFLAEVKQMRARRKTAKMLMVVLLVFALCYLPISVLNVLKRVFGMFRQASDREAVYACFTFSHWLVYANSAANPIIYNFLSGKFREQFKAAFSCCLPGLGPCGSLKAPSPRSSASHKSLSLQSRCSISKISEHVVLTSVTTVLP

[7] = molecular target: T4, Ubiquitin-conjugating enzyme E2 N; type: functional; remark: listed apart in the source
[8] = molecular target: T5, Orexin/Hypocretin receptor type 1; experiment: Fluorescence-based cell-based high throughput dose response assay for antagonists of the orexin 1 receptor (OX1R; HCRTR1). [Related pubchem assays (depositor defined):AID434989, AID435008, AID463079, AID485270, AID492963, AID492964, AID492965, AID493232, AID504717, AID504718]; type: functional
[9] = molecular target: T6, Polyadenylate-binding protein 1 (Homo sapiens, UniProt P11940); experiment: PABP1 MLLE–PAM2 interaction inhibitors, dose response, miRNA deadenylation inhibitor project, biochemical, fluorescence polarization, Cy5-PAM2 peptide, secondary (AID 602260); type: functional; details: read-out: IC50_Mean
[10] = molecular target: T6, Polyadenylate-binding protein 1; experiment: PABP1 MLLE–PAM2 binding inhibitor potency, dose response, biochemical, fluorescence polarization, FITC-PAM2 peptide (AID 602259); type: functional; details: read-out: IC50_Mean
Orexin receptor type 2 [11] = molecular target: T7, Orexin receptor type 2 (Homo sapiens, UniProt O43614); experiment: Counterscreen assay for antagonists of the orexin 1 receptor (OX1R; HCRTR1): Fluorescence-based cell-based dose response assay for antagonists of the orexin 2 receptor (OX2R; HCRTR2), run by assay provider.; type: functional
T7 sequence (O43614 whole entry): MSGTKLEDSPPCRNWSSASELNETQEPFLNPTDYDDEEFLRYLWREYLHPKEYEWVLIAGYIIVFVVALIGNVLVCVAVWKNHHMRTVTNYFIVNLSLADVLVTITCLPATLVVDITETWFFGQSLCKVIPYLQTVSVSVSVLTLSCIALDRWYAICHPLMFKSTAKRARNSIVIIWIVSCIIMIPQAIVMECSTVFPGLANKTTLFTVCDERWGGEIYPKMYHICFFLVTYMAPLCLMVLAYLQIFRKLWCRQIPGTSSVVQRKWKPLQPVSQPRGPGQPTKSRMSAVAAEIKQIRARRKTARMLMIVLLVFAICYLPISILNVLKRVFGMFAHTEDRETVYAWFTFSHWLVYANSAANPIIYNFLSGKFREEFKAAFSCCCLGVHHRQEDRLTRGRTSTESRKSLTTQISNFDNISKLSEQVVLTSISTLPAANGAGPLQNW

Orexin receptor type 2 [12] = molecular target: T7, Orexin receptor type 2; experiment: Counterscreen assay for antagonists of the orexin 1 receptor (OX1R; HCRTR1): Homogeneous Time Resolved Fluorescence (HTRF)-based cell-based dose response assay for antagonists of the orexin 2 receptor (OX2R; HCRTR2), run by assay provider.; type: functional
[13] = molecular target: T8, Rac GTPase-activating protein 1 (Homo sapiens, UniProt Q9H0H5); experiment: MgcRacGAP GTPase-activating activity inhibitors, confirmation, biochemical, ADP Hunter fluorescence, primary and confirmatory (AID 624330); type: functional
T8 sequence (Q9H0H5 whole entry): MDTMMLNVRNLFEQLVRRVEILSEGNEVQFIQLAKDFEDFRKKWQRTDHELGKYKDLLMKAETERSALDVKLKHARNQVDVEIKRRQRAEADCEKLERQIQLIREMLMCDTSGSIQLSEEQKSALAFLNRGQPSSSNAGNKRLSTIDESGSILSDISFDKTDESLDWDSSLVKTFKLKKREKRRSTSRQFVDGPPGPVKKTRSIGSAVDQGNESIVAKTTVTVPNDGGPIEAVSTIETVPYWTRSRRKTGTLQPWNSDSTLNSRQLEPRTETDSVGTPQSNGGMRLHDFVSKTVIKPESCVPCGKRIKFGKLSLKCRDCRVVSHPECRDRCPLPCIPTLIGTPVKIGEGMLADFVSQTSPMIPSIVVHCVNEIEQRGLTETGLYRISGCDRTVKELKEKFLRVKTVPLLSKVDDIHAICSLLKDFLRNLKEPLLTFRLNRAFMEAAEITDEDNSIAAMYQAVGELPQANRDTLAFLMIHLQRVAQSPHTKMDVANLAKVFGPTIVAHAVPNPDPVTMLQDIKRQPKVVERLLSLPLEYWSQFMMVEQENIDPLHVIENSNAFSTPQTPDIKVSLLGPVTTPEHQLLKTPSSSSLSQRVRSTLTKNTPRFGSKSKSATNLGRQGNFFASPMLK

[14] = Luminescence Cell-Based Dose Confirmation HTS to Identify Activators of 5'UTR Stem-Loop Driven Alpha-Synuclein mRNA Translation in H4 Neuroglioblastoma Cells. [Related pubchem assays: 1829 (Project Summary), 1814 (Primary HTS)]; type: functional
[15] = Luminescence Cell-Based Dose Response HTS to Identify Activators of Luciferase Translation or Activity in H4 […] Cells. [Related pubchem assays: 1829 (Project Summary), 1814 (Primary HTS)]; type: functional
H4 = experiment: Luminescence Cell-Based Dose Response HTS to Identify Activators of 5'UTR Stem-Loop Driven Prion Protein mRNA Translation in H4 Neuroglioblastoma Cells. [Related pubchem assays: 1829 (Project Summary), 1814 (Primary HTS)]; type: functional; details: Homo sapiens
[16] = Counterscreen for inhibitors of Trypanosoma brucei methionyl tRNA synthetase (MetRS): Luminescence-based cell-based high throughput dose response assay to identify compounds that are cytotoxic to Jurkat human T lymphocyte cells.; type: functional

T6 sequence (P11940 whole entry): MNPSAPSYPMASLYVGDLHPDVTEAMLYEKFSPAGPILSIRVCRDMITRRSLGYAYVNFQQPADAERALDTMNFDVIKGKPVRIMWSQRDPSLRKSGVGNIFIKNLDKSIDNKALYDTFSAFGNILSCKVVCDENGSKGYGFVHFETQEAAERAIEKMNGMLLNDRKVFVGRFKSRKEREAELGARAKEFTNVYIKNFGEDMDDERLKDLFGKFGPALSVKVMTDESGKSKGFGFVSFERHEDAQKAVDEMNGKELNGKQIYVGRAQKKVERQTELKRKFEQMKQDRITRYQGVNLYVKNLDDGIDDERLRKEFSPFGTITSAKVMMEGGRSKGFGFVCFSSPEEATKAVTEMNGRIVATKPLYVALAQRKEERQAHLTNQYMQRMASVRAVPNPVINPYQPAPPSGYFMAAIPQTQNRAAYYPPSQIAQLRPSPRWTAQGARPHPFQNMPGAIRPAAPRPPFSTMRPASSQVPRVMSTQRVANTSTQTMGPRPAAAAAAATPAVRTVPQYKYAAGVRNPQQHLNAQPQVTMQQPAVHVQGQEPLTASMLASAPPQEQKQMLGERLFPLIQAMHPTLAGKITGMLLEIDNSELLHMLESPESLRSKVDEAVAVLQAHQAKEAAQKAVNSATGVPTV
Chain of DNA repair and recombination protein RAD54-like (Q92698 whole entry, the tested form may be a part): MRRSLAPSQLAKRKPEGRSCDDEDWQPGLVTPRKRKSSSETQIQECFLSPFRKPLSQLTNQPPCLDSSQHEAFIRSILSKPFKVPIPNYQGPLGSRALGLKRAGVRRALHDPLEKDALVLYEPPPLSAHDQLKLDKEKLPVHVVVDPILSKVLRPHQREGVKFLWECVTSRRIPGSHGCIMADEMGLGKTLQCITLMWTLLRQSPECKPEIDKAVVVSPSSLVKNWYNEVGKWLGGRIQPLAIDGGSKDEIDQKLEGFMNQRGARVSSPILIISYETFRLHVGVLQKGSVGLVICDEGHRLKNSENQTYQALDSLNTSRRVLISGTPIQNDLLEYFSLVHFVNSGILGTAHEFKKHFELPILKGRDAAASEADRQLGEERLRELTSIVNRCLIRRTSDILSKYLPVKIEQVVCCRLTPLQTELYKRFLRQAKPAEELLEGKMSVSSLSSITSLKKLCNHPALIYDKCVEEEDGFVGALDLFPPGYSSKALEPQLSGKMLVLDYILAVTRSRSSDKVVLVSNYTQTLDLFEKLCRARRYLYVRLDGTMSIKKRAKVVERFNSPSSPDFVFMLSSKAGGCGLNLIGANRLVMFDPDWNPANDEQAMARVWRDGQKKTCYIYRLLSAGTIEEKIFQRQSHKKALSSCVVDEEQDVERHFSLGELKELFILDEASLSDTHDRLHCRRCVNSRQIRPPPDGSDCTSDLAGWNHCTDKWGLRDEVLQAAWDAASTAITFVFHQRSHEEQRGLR

Compound: O=c1c2ccccc2oc2ccc(NCCCN3CCOCC3)cc12
- AC50 [1]: 34.2 µM (active)

Compound: Oc1ccc(NC(=S)N=Nc2c(O)[nH]c3ccccc23)cc1
- EC50 [2]: 16.3 µM (active)
- EC50 [3]: 3.98 µM (active)
- IC50 (CHO-K1): > 66.2 µM (inactive)
- IC50 (Bcl-2-related protein A1): > 20 µM (inactive)
- IC50 [4]: 2.17 µM (active)
- IC50 [5]: > 49.8 µM (inactive)
- IC50 [6]: 3.24 µM (active)
- IC50 [7]: 0.763 µM (active)
- IC50 [8]: 43.6 µM (inactive)
- IC50 [9]: > 66 µM (inactive)
- IC50 [10]: > 66 µM (inactive)
- IC50 (Orexin receptor type 2 [11]): > 88.8 µM (inactive)
- IC50 (Orexin receptor type 2 [12]): > 50 µM (inactive)
- IC50 [13]: 21.5 µM (active)

Compound: Cc1ccc2[nH]c(-c3ccc(SCC(=O)Nc4ccc5c(c4)OCCO5)nc3)nc2c1
- EC50 [14]: 1.13 µM (active)
- EC50 [15]: 1.99 µM (active)
- EC50 (H4): 11.3 µM (active)
- IC50 [16]: 83.3 µM (inactive)
